Source: article PMC1919488 (Nucleic Acids Research, 2007)
Changes are numbered by the printed parent chain. Like-named read-outs stand apart in the source and are kept apart here.

Key:
Rad51 [1] = biological target: T1, Rad51 (Saccharomyces cerevisiae, UniProt P25454, K191A); assay: biochemical
T1 sequence (P25454 1-400 K191A): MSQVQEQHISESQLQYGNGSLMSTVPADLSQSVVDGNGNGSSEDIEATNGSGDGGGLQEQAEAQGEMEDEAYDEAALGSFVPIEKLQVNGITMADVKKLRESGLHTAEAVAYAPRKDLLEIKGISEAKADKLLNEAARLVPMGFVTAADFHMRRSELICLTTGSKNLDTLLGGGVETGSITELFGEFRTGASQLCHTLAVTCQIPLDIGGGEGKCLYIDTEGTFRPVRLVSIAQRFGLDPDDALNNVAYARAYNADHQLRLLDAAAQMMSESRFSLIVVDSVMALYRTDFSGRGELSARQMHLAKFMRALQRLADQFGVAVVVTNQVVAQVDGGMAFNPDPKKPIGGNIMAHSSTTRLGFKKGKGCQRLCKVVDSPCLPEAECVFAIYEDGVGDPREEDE

Rad51 [2] = biological target: T2, Rad51 (Saccharomyces cerevisiae, UniProt P25454); assay: biochemical
T2 sequence (P25454 1-400): T1 sequence (P25454 1-400 K191A) with A191K

Rad51 [3] = biological target: T3, Rad51 (Saccharomyces cerevisiae, UniProt P25454, K191R); assay: biochemical
T3 sequence (P25454 1-400 K191R): T1 sequence (P25454 1-400 K191A) with A191R

Rad51 [4] = biological target: T3, Rad51; type: binding
Rad51 [5] = biological target: T2, Rad51; type: binding
Rad51 [6] = biological target: T1, Rad51; type: binding

| Kd (Rad51 [1]) [µM] | Kd (Rad51 [2]) [µM] | Kd (Rad51 [3]) [µM] | SMILES | Kd (Rad51 [4]) [µM] | Kd (Rad51 [5]) [µM] | Kd (Rad51 [6]) [µM] |
| --- | --- | --- | --- | --- | --- | --- |
| 34.2 ± 25.8 | 8.8 ± 4.5 | 52.5 ± 18.2 | Nc1ncnc2c1ncn2[C@@H]1O[C@H](COP(=O)(O)OP(=O)(O)OP(=O)(O)O)[C@@H](O)[C@H]1O [ATP] | – | – | – |
| – | – | – | [N-]=[N+]=Nc1nc2c(N)ncnc2n1[C@@H]1O[C@H](COP(=O)(O)OP(=O)(O)OP(=O)(O)O)[C@@H](O)[C@H]1O [8-Azido-ATP] | 26.9 ± 10.3 | 10.2 ± 5.1 | 73.7 ± 35.6 |
